These results are taken from article PMC6158191, “Crystal structure of the red light-activated channelrhodopsin Chrimson” (Nature Communications, 2018).

Assay [1] has as its target C1Chrimson (Chrimson variant with the extracellular N-terminal sequence replaced by that of CrChR1) (Chlamydomonas reinhardtii | Chlamydomonas noctigama). The assay can be described thus: crystal structure; lipidic cubic phase (monoolein) crystals, 28-33% PEG500DME, 100 mM Na citrate pH 5.0, 100 mM Na malonate pH 7.0, 10-40 mM sarcosine; two protomers in the asymmetric unit; 2.6 Å.

The target of assay [2] is T1, C1Chrimson (called Chrimson in the structure and spectroscopy sections) (Chlamydomonas noctigama, UniProt Z9S8G4QJ52).
T1 construct: residues 1-79 of CsChrimson replaced by CrChR1 1-76; Sf9; C-terminal TEV-EGFP-FLAG cleaved for crystals; C-terminal FLAG for spectroscopy; dimer
T1 sequence (Z9S8G4QJ52 1-347): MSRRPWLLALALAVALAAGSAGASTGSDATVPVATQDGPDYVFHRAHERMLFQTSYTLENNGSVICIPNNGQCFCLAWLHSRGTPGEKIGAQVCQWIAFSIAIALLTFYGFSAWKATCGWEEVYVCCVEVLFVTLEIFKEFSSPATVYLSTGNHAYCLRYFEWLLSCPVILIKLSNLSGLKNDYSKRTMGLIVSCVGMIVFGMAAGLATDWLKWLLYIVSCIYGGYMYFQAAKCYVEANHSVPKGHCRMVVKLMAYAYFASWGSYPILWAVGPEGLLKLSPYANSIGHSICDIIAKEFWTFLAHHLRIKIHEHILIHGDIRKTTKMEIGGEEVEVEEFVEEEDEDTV
The assay can be described thus: X-ray crystallography, […] Å. Type of assay: binding. Conditions: covalent; Schiff base to conserved lysine; crystals at low pH, dark.

A further assay has as its target T2, CsChrimson (Chlamydomonas noctigama, UniProt Z9S8G4QJ52, , form not given).
T2 construct: extracellular N-terminus of Chrimson replaced by that of C. subdivisa channelrhodopsin; in pmCerulean-C1 vector; HEK293 cells; with Channelrhodopsin (Chloromonas subdivisa; N-terminal extracellular part of the same polypeptide)
T2 sequence (Z9S8G4QJ52 77-347 R159H): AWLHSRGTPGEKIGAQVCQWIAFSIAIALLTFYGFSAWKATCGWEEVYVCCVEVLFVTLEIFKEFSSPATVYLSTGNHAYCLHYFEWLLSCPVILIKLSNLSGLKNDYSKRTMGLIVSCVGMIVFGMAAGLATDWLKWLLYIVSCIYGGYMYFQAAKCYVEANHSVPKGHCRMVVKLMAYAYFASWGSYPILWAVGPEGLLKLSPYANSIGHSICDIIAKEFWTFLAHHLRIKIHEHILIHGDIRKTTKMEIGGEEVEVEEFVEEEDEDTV
Description: whole-cell patch clamp, HEK293, photocurrent on cation exchange. Conditions: permeant ion; 110 mM guanidinium chloride outside replacing NaCl; 110 mM NaCl inside, pHi 7.2. Format: cell-based.

With “C1Chrimson (Chrimson variant with the extracellular N-terminal sequence replaced by that of CrChR1)”, the stoichiometry N in assay [1] worked out at 2.

As for `CC1=C(/C=C/C(C)=C/C=C/C(C)=C/C=O)C(C)(C)CCC1` [all-trans retinal], the “X-ray crystallography, 2.6 Å” value in assay [2] is given as “including the covalently attached all-trans retinal”.

As to `N=C(N)N` [guanidinium], the “whole-cell patch clamp, HEK293, photocurrent on cation exchange” value at CsChrimson is “ion-conducting pore of the R162H mutant is permeable to the large cation guanidinium”.
